Patent US20250270221A1, “SOLID FORMS OF JAK INHIBITOR AND PROCESS OF PREPARING THE SAME” (Incyte Corporation, priority 2022, published 2025)

Test: Dynamic vapor sorption (DVS Intrinsic, Method D, not dried)
Type: physicochemical
Set-up: Hysteresis: unit not given here
Method: The samples were not dried prior to analysis. Sorption and desorption data were collected from 5% to 95% RH in 10% RH increments under a nitrogen purge. The equilibrium criteria used for the analyses were 0.001 dm/dt weight change in 5 minutes with a minimum step time of 30 minutes and maximum equilibration time of 180 minutes with a 3 minute data logging interval. Data were not corrected for the initial moisture content of the sample.

[1] = Target RH 95.0%, sample RH 95.8%

With `N#CC[C@H](C1CCCC1)n1cc(-c2ncnc3[nH]ccc23)cn1` [Form I, (R)-3-(4-(7H-pyrrolo[2,3-d]pyrimidin-4-yl)-1H-pyrazol-1-yl)-3-cyclopentylpropanenitrile] the Hygroscopicity (DVS Method D) was “hygroscopic”, the “Desorp Mass Change” value (Target RH 5.0%, sample RH 5.1%) was 5.04% and the “Sorp Mass Change” value (Target RH 5.0%, sample RH 5.4%) was 0.00%. The Hysteresis (Target RH 15.0%) was 9.78, the “Sorp Mass Change” value (Target RH 15.0%, sample RH 15.6%) was 0.06% and the “Desorp Mass Change” value (Target RH 15.0%, sample RH 16.1%) was 9.84%. For the same molecule, the Hysteresis (Target RH 25.0%) was 9.94, the “Sorp Mass Change” value (Target RH 25.0%, sample RH 25.4%) was 0.11% and the “Desorp Mass Change” value (Target RH 25.0%, sample RH 25.9%) was 10.05%. For the same molecule, the Hysteresis (Target RH 35.0%) was 10.06, the “Sorp Mass Change” value (Target RH 35.0%, sample RH 35.4%) was 0.15% and the “Desorp Mass Change” value (Target RH 35.0%, sample RH 36.0%) was 10.21%. For the same molecule, the Hysteresis (Target RH 45.0%) was 10.16, the “Sorp Mass Change” value (Target RH 45.0%, sample RH 45.5%) was 0.19% and the “Desorp Mass Change” value (Target RH 45.0%, sample RH 46.1%) was 10.35%. For the same molecule, the Hysteresis (Target RH 55.0%) was 10.21, the “Sorp Mass Change” value (Target RH 55.0%, sample RH 55.3%) was 0.26% and the “Desorp Mass Change” value (Target RH 55.0%, sample RH 56.1%) was 10.47%. For the same molecule, the Hysteresis (Target RH 65.0%) was 4.28, the “Sorp Mass Change” value (Target RH 65.0%, sample RH 65.5%) was 6.30% and the “Desorp Mass Change” value (Target RH 65.0%, sample RH 66.2%) was 10.58%. The Hysteresis (Target RH 75.0%) was 3.65, the “Sorp Mass Change” value (Target RH 75.0%, sample RH 75.3%) was 7.04% and the “Desorp Mass Change” value (Target RH 75.0%, sample RH 76.3%) was 10.68%. For the same molecule, the Hysteresis (Target RH 85.0%) was 0.79, the “Sorp Mass Change” value (Target RH 85.0%, sample RH 86.1%) was 10.00% and the “Desorp Mass Change” value (Target RH 85.0%, sample RH 89.4%) was 10.79%. The “Desorp Mass Change” value [1] was 10.83%, the “Sorp Mass Change” value [1] was 10.83% and the Additional weight loss (desorption from 15 to 5% RH) was 4.8%. It also gave a Weight loss (desorption from 95 to 15% RH) of 1%, a Weight gain (from 5 to 55% RH) of 0.26% and a Weight gain (from 55 to 95% RH) of 10.6%. For the same molecule, the “Solid form of post DVS sample” value (less crystalline than the starting material) was “Form I”.
